Source: patent publication US20150306226A1, “COMPOSITION” (RATIOPHARM GMBH, priority 2012, published 2015)
Converted amounts (≈) assume the structure as drawn.

Experiment: solubility in aqueous buffer
Format: physicochemical
Details: aqueous buffer pH 7.4, room temperature
Protocol: Enantiomerically pure compound (I) has low solubility in aqueous solution. In aqueous buffer pH 7.4 the solubility measured at room temperature is about 0.01 mg/ml. Poor solubility typically leads to poor oral bioavailability, fed/fasted variations in bioavailability, cumbersome and inconvenient dosage forms, and may necessitate the use of harsh solubilising agents that are associated with adverse side effects.

solubility: ~10 µg/mL (≈ 21.7 µM)
Compound: CCOc1cc(C(CS(C)(=O)=O)N2C(=O)c3cccc(NC(C)=O)c3C2=O)ccc1OC (stereo not shown) [compound (I), N-[2-[1-(3-ethoxy-4-methoxyphenyl)-2-(methylsulfonyl)ethyl]-1,3-dioxo-2,3-dihydro-1H-isoindol-4-yl]acetamide]
